In patent US9656996B2, “Fused heterocyclic compound, preparation method therefor, pharmaceutical composition, and uses thereof” (SHANGHAI YINGLI PHARMACEUTICAL CO., LTD., priority 2013, dated 2017):

Tests used:
PI3Kγ = PI3Kγ (Homo sapiens (Human), UniProt P48736); assay: PI3Kγ enzymatic inhibitory activity IC50 assay; type: biochemical; settings: selectivity ratio
Procedure: (§1) 1. Buffer preparation: 50 mM HEPES, pH 7.5, 3 mM MgCl2, 1 mM EGTA, 100 mM NaCl, 0.03% CHAPS.
(§2) 2. The compound was formulated in 100% DMSO in a concentration gradient, and deposited to a 384-well plate with a final DMSO concentration of 1%.
(§3) 3. PI3Kα, PI3Kδ, PI3Kβ and PI3Kγ enzymes (purchased from EMD Millipore) were diluted to the optimal concentration with the following buffer: 50 mM HEPES, pH 7.5, 3 mM MgCl2, 1 mM EGTA, 100 mM NaCl, 0.03% CHAPS, 2 mM DTT, transferred to a 384-well plate and incubated with the compound for a certain time.
(§4) 4. The substrate was diluted to an optimal concentration with the following buffer: 50 mM HEPES, pH 7.5, 3 mM MgCl2, 1 mM EGTA, 100 mM NaCl, 0.03% CHAPS, 2 mM DTT, 50 μM PIP2, 25 μM ATP and added to the 384-well plate to initiate the reaction. PI3Kα, PI3Kβ and PI3Kγ were allowed to react for 1 h at room temperature, and PI3Kδ reacted for 2 hours at room temperature. Another 10 μL ADP-Glo Detection Reagent also needed to be added for PI3Kβ and PI3Kγ, and then equilibrated at room temperature for 30 minutes.
(§5) 5. Luminescence was read by using Flexstation, and the inhibition rate was calculated as the average value of two tests.

PI3Kβ = PI3Kβ (Homo sapiens (Human), UniProt P42338); assay: PI3Kβ enzymatic inhibitory activity IC50 assay; type: biochemical; settings: selectivity ratio
PI3Kβ, sequence (P42338 whole entry, species assumed): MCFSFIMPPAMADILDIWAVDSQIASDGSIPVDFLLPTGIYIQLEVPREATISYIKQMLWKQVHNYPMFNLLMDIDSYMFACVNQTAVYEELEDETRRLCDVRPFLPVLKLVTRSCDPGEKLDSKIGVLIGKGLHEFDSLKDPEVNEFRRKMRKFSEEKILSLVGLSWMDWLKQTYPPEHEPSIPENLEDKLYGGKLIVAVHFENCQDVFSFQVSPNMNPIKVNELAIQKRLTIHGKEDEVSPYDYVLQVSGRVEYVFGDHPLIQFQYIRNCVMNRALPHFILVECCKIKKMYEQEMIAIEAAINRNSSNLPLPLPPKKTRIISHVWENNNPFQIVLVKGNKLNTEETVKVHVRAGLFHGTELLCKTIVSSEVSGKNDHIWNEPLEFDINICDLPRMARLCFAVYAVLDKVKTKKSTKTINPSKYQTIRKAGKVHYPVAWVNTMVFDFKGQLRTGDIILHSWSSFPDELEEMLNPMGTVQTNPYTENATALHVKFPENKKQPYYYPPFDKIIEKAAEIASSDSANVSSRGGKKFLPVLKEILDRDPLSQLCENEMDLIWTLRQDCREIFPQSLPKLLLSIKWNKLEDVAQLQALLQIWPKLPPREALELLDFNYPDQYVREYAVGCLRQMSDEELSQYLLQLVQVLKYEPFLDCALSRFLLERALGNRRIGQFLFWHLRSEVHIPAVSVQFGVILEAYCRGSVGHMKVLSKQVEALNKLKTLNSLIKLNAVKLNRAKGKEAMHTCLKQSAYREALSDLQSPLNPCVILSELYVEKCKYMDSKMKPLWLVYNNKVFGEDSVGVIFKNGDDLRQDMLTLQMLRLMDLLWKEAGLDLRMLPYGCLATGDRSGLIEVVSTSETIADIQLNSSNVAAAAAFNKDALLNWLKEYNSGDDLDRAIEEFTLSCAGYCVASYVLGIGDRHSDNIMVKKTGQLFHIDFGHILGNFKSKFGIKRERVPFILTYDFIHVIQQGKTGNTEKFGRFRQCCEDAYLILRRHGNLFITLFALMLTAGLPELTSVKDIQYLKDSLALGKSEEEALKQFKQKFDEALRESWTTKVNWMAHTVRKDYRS
PI3Kβ, sequence (P27986 whole entry partner, species assumed): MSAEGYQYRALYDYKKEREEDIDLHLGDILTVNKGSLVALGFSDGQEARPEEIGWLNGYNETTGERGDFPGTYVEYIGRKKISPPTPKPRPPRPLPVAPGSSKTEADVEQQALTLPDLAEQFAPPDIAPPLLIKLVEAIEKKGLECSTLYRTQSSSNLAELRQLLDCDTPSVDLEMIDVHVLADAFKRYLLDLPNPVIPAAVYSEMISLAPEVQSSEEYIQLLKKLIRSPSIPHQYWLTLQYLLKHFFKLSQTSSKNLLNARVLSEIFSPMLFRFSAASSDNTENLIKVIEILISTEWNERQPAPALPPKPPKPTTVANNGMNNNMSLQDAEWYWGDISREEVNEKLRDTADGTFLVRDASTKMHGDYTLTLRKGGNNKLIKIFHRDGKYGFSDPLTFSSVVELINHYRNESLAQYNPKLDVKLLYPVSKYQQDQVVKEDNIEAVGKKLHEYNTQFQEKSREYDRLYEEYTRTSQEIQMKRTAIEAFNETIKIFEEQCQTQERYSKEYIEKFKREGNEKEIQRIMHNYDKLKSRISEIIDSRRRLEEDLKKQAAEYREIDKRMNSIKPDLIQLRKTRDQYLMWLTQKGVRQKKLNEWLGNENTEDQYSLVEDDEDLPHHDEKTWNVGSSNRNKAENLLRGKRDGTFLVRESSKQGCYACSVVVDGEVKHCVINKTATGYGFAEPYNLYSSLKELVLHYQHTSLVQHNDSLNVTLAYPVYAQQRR
Procedure: as §1, §2, §3, §4, §5

[1] = test system: Raji cell TNF-α generation; assay: Inhibition of human Raji cell TNF-α generation induced by human IgM (ELISA); type: cell-based; settings: Raji cells, IgM stimulation, 24 hours
Procedure: 1. Raji cell line (human Burkitt's lymphoma origin) (ATCC, Cat#CCL-86) was used.
2. Raji cells were applied onto the 96-well plate with 1×10^5/well.
3. The compounds to be screened were diluted to the corresponding test concentration, and added to the cell culture system 30 minutes prior to IgM stimulation.
4. 10 µg/ml IgM monoclonal antibody (JACKSON, Cat#109-006-129) was added to the cell culture system in order to stimulate the cells generating TNF-α.
5. After 24 hours, the amount of TNF-α produced by the cell line was determined by ELISA.
6. The inhibition rates at each concentration of the compound were calculated and plotted to calculate 50% inhibition rate (IC50), and the specific results were shown in table 3.

PI3Kδ = PI3Kδ (Homo sapiens (Human), UniProt O00329); assay: PI3Kδ enzymatic inhibitory activity IC50 assay; type: biochemical; settings: luminescence readout, 25 μM ATP, 50 μM PIP2, 2 hours at room temperature
PI3Kδ, sequence (O00329 whole entry, species assumed): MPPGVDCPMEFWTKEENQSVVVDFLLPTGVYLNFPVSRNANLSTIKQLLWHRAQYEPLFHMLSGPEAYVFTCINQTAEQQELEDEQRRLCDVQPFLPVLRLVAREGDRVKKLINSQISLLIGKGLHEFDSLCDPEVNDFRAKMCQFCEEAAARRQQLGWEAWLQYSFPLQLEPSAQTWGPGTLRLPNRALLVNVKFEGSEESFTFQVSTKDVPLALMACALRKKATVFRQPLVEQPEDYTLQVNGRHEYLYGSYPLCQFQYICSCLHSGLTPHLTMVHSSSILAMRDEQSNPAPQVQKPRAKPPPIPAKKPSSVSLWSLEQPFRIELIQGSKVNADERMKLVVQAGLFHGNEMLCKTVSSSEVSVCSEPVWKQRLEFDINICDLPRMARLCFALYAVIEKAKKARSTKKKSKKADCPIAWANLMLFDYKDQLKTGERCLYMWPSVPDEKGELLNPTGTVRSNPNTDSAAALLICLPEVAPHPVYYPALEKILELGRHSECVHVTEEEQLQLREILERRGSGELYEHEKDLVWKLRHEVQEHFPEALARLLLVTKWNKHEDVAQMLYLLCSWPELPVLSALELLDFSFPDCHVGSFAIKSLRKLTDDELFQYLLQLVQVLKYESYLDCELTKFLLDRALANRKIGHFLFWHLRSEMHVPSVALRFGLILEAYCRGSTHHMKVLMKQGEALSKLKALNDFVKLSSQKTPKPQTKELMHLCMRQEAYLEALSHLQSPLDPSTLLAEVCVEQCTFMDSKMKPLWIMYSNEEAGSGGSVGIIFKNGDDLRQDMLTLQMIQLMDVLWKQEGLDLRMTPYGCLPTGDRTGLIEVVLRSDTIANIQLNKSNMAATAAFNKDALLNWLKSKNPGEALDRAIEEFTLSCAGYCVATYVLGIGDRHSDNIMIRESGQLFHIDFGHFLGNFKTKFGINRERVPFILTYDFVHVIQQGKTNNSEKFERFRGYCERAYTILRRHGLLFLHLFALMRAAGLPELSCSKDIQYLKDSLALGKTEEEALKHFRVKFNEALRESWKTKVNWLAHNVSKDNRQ
PI3Kδ, sequence (P27986 whole entry partner, species assumed): as the sequence (P27986 whole entry partner, species assumed) above
Procedure: as §1, §2, §3, §4, §5

PI3Kα = PI3Kα (Homo sapiens (Human), UniProt P42336); assay: PI3Kα enzymatic inhibitory activity IC50 assay; type: biochemical; settings: selectivity ratio
PI3Kα, sequence (P42336 whole entry, species assumed): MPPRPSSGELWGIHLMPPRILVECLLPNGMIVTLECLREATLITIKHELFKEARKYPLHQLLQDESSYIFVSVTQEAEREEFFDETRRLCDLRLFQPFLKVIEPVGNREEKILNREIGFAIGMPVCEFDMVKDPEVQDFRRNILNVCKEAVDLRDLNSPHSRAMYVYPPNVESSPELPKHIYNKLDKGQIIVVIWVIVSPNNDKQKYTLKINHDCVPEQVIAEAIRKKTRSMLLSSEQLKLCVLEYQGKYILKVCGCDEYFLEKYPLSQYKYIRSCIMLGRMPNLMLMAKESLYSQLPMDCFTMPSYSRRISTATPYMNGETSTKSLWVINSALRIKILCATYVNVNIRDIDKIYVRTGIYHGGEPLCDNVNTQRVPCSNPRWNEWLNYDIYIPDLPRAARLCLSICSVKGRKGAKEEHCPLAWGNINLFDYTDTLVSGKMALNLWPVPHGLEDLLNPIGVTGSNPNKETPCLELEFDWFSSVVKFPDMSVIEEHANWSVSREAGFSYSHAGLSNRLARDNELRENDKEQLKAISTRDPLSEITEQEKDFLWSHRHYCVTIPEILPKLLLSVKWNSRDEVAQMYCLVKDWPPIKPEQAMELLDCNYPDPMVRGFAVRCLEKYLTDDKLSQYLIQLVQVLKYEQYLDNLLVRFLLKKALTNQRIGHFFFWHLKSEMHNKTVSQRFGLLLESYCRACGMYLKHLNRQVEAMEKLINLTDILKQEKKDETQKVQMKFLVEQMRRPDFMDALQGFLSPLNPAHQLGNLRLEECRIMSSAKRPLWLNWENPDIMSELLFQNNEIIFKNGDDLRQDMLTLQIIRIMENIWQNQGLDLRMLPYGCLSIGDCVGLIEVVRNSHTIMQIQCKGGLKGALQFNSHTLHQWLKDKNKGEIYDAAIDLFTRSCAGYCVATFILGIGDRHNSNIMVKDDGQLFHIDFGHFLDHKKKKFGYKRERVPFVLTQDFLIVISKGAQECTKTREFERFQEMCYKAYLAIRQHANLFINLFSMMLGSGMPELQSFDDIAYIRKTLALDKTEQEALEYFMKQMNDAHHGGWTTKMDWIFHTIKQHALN
PI3Kα, sequence (P27986 whole entry partner, species assumed): as the sequence (P27986 whole entry partner, species assumed) above
Procedure: as §1, §2, §3, §4, §5

PI3Kγ, sequence (P48736 whole entry, species assumed): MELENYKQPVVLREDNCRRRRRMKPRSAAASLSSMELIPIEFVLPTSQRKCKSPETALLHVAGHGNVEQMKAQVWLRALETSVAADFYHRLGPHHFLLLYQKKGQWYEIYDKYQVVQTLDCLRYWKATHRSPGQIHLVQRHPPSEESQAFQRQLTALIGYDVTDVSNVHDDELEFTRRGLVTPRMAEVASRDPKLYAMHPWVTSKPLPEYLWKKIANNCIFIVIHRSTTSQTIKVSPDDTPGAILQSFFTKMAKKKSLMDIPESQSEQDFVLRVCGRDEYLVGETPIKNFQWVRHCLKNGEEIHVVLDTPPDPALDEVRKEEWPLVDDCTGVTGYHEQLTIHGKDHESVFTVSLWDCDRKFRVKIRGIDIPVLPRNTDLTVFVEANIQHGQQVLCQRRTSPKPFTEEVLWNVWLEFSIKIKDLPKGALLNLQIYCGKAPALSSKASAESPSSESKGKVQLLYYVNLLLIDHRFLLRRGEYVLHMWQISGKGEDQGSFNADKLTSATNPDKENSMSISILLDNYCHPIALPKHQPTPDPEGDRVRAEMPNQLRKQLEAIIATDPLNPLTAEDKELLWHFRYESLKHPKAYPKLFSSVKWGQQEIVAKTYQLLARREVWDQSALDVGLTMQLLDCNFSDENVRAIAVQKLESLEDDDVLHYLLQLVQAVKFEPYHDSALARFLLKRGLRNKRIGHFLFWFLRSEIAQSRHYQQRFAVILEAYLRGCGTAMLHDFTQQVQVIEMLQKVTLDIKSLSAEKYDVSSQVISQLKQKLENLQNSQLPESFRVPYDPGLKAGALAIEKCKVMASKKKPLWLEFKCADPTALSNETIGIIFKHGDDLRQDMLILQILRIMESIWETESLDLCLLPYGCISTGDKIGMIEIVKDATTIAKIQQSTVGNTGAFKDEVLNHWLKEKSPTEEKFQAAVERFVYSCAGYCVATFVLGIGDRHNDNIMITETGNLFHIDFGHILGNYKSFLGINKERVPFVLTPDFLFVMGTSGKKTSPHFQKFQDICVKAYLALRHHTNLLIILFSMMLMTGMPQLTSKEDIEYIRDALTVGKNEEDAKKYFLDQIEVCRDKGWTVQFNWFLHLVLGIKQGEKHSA

γ/δ (ratio of IC50 values against PI3Kγ to PI3Kδ) (PI3Kγ): >588
β/δ (ratio of IC50 values against PI3Kβ to PI3Kδ) (PI3Kβ): 366
IC50 [1]: 0.027 µM
IC50 (PI3Kδ): 0.017 µM
α/δ (ratio of IC50 values against PI3Kα to PI3Kδ) (PI3Kα): 239
Structure (SMILES): COc1ncc(-c2nc(N3CCOCC3)nc3c(OC4CCC(N5CCCCC5)CC4)cc(F)cc23)cc1NS(C)(=O)=O (centres unmarked) [Compound 36]
